Data published in PubChem BioAssay AID1963962 (Molecular Pharmacology Branch, DTP, NCI, 2024).
pIC50: −log10 of the molar value.

Test system: 967376-340-R-J2-PDC multicell spheroid viability
Assay: Anticancer human tumor 967376-340-R-J2-PDC patient-derived colon adenocarcinoma cell line growth inhibition [PI3K]
Details: for pIC50: curve of first compound; for viability, T/C: stronger effect = lower value
Procedure, shortened: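 Spheroid viability read-out. Co-cultures contained the tumor line plus HUVEC and human MSCs. Each agent was paired with a PI3K inhibitor (inavolisib, alpelisib, duvelisib, copanlisib) across half-log dilutions starting at clinical Cmax, or at 10 microM when Cmax was unknown.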

[1] = second compound 0.00316 µM, first compound 0.000316 µM
[2] = second compound 0.00316 µM, first compound 0.001 µM
[3] = second compound 0.00316 µM, first compound 0.00316 µM
[4] = second compound 0.00316 µM, first compound 0.01 µM
[5] = second compound 0.00316 µM, first compound 0.0316 µM
[6] = second compound 0.00316 µM, first compound 0.1 µM
[7] = second compound 0.01 µM, first compound 0.000316 µM
[8] = second compound 0.01 µM, first compound 0.001 µM
[9] = second compound 0.01 µM, first compound 0.00316 µM
[10] = second compound 0.01 µM, first compound 0.01 µM
[11] = second compound 0.01 µM, first compound 0.0316 µM
[12] = second compound 0.01 µM, first compound 0.1 µM
[13] = second compound 0.0316 µM, first compound 0.000316 µM
[14] = second compound 0.0316 µM, first compound 0.001 µM
[15] = second compound 0.0316 µM, first compound 0.00316 µM
[16] = second compound 0.0316 µM, first compound 0.01 µM
[17] = second compound 0.0316 µM, first compound 0.0316 µM
[18] = second compound 0.0316 µM, first compound 0.1 µM
[19] = second compound 0.1 µM, first compound 0.000316 µM
[20] = second compound 0.1 µM, first compound 0.001 µM
[21] = second compound 0.1 µM, first compound 0.00316 µM
[22] = second compound 0.1 µM, first compound 0.01 µM
[23] = second compound 0.1 µM, first compound 0.0316 µM
[24] = second compound 0.1 µM, first compound 0.1 µM
[25] = second compound 0.316 µM, first compound 0.000316 µM
[26] = second compound 0.316 µM, first compound 0.001 µM
[27] = second compound 0.316 µM, first compound 0.00316 µM
[28] = second compound 0.316 µM, first compound 0.01 µM
[29] = second compound 0.316 µM, first compound 0.0316 µM
[30] = second compound 0.316 µM, first compound 0.1 µM
[31] = second compound 1 µM, first compound 0.000316 µM
[32] = second compound 1 µM, first compound 0.001 µM
[33] = second compound 1 µM, first compound 0.00316 µM
[34] = second compound 1 µM, first compound 0.01 µM
[35] = second compound 1 µM, first compound 0.0316 µM
[36] = second compound 1 µM, first compound 0.1 µM
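Also: spheroids exposed to agents for 7 days before read-out.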
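For viability, T/C in this document: luminescence used as surrogate of cell viability.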

With `CC(=O)c1c(C)c2cnc(Nc3ccc(N4CCNCC4)cn3)nc2n(C2CCCC2)c1=O` + COc1c(OCCCN2CCOCC2)ccc2c3n(c(=NC(=O)c4cnc(N)nc4)nc12)CCN3 the pIC50 (second compound 0.00316 µM) was < 7.00, the pIC50 (second compound 0.01 µM) was < 7.00 and the pIC50 (second compound 0.0316 µM) was < 7.00. For the same compound, the pIC50 (second compound 0.1 µM) was < 7.00, the pIC50 (second compound 0.316 µM) was > 9.50 and the pIC50 (second compound 1 µM) was > 9.50. For the same compound, the viability, T/C [1] was 92.9%, the viability, T/C [2] was 95.8% and the viability, T/C [3] was 94.7%. The viability, T/C [4] was 88.5%, the viability, T/C [5] was 87.5% and the viability, T/C [6] was 74.7%. It also gave a viability, T/C [7] of 89.8%, a viability, T/C [8] of 99.5% and a viability, T/C [9] of 92.2%. For the same compound, the viability, T/C [10] was 101%, the viability, T/C [11] was 78% and the viability, T/C [12] was 60.9%. The viability, T/C [13] was 72.4%, the viability, T/C [14] was 79.9% and the viability, T/C [15] was 73.2%. The viability, T/C [16] was 73.8%, the viability, T/C [17] was 86.3% and the viability, T/C [18] was 74.3%. For the same compound, the viability, T/C [19] was 64.2%, the viability, T/C [20] was 49.7% and the viability, T/C [21] was 64.5%. The viability, T/C [22] was 59.3%, the viability, T/C [23] was 62.1% and the viability, T/C [24] was 54.6%. For the same compound, the viability, T/C [25] was 46.7%, the viability, T/C [26] was 39% and the viability, T/C [27] was 37%. It also gave a viability, T/C [28] of 42.2%, a viability, T/C [29] of 45.5% and a viability, T/C [30] of 44.7%. It also gave a viability, T/C [31] of 41.5%, a viability, T/C [32] of 37.3% and a viability, T/C [33] of 34.8%. It also gave a viability, T/C [34] of 33.5%, a viability, T/C [35] of 34.3% and a viability, T/C [36] of 27.9%.
In the case of `CC(C)n1nc(-c2ccc3oc(N)nc3c2)c2c(N)ncnc21` + COc1c(OCCCN2CCOCC2)ccc2c3n(c(=NC(=O)c4cnc(N)nc4)nc12)CCN3, the pIC50 (second compound 0.00316 µM) was < 7.00, the pIC50 (second compound 0.01 µM) was 7.01 and the pIC50 (second compound 0.0316 µM) was 7.48. The pIC50 (second compound 0.1 µM) was 7.75, the pIC50 (second compound 0.316 µM) was 9.27 and the pIC50 (second compound 1 µM) was > 9.50. The viability, T/C [1] was 85.7%, the viability, T/C [2] was 106% and the viability, T/C [3] was 88.7%. It also gave a viability, T/C [4] of 74.1%, a viability, T/C [5] of 76.5% and a viability, T/C [6] of 54.8%. The viability, T/C [7] was 109%, the viability, T/C [8] was 97.2% and the viability, T/C [9] was 81%. The viability, T/C [10] was 91.1%, the viability, T/C [11] was 67.3% and the viability, T/C [12] was 47.1%. It also gave a viability, T/C [13] of 85.9%, a viability, T/C [14] of 83.9% and a viability, T/C [15] of 65.4%. The viability, T/C [16] was 63.8%, the viability, T/C [17] was 50% and the viability, T/C [18] was 39.9%. It also gave a viability, T/C [19] of 58%, a viability, T/C [20] of 49.5% and a viability, T/C [21] of 53.9%. The viability, T/C [22] was 51.5%, the viability, T/C [23] was 47.9% and the viability, T/C [24] was 27%. For the same compound, the viability, T/C [25] was 61.5%, the viability, T/C [26] was 36.3% and the viability, T/C [27] was 38%. For the same compound, the viability, T/C [28] was 41.4%, the viability, T/C [29] was 37.2% and the viability, T/C [30] was 21.9%. It also gave a viability, T/C [31] of 34.9%, a viability, T/C [32] of 28.2% and a viability, T/C [33] of 32.1%. It also gave a viability, T/C [34] of 29.8%, a viability, T/C [35] of 31.6% and a viability, T/C [36] of 26.5%.
For `CCCS(=O)(=O)Nc1ccc(F)c(C(=O)c2c[nH]c3ncc(-c4ccc(Cl)cc4)cc23)c1F` + COc1c(OCCCN2CCOCC2)ccc2c3n(c(=NC(=O)c4cnc(N)nc4)nc12)CCN3, the pIC50 (second compound 0.00316 µM) was < 5.00, the pIC50 (second compound 0.01 µM) was < 5.00 and the pIC50 (second compound 0.0316 µM) was < 5.00. The pIC50 (second compound 0.1 µM) was < 5.00, the pIC50 (second compound 0.316 µM) was > 7.50 and the pIC50 (second compound 1 µM) was > 7.50. It also gave a viability, T/C [5] of 94.8%, a viability, T/C [6] of 94.7% and a viability, T/C (second compound 0.00316 µM, first compound 0.316 µM) of 82.8%. The viability, T/C (second compound 0.00316 µM, first compound 1 µM) was 101%, the viability, T/C (second compound 0.00316 µM, first compound 3.16 µM) was 74.3% and the viability, T/C (second compound 0.00316 µM, first compound 10 µM) was 59.6%. It also gave a viability, T/C [11] of 104%, a viability, T/C [12] of 78.9% and a viability, T/C (second compound 0.01 µM, first compound 0.316 µM) of 81.8%. It also gave a viability, T/C (second compound 0.01 µM, first compound 1 µM) of 73.6%, a viability, T/C (second compound 0.01 µM, first compound 3.16 µM) of 90% and a viability, T/C (second compound 0.01 µM, first compound 10 µM) of 61.8%. The viability, T/C [17] was 68.1%, the viability, T/C [18] was 63.4% and the viability, T/C (second compound 0.0316 µM, first compound 0.316 µM) was 73.8%. The viability, T/C (second compound 0.0316 µM, first compound 1 µM) was 79%, the viability, T/C (second compound 0.0316 µM, first compound 3.16 µM) was 69.7% and the viability, T/C (second compound 0.0316 µM, first compound 10 µM) was 69.1%. For the same compound, the viability, T/C [23] was 63.2%, the viability, T/C [24] was 58.5% and the viability, T/C (second compound 0.1 µM, first compound 0.316 µM) was 77%. The viability, T/C (second compound 0.1 µM, first compound 1 µM) was 51.1%, the viability, T/C (second compound 0.1 µM, first compound 3.16 µM) was 63% and the viability, T/C (second compound 0.1 µM, first compound 10 µM) was 54%. It also gave a viability, T/C [29] of 39.4%, a viability, T/C [30] of 36.5% and a viability, T/C (second compound 0.316 µM, first compound 0.316 µM) of 57.1%. For the same compound, the viability, T/C (second compound 0.316 µM, first compound 1 µM) was 34.6%, the viability, T/C (second compound 0.316 µM, first compound 3.16 µM) was 68.1% and the viability, T/C (second compound 0.316 µM, first compound 10 µM) was 58.8%. For the same compound, the viability, T/C [35] was 31.6%, the viability, T/C [36] was 41.6% and the viability, T/C (second compound 1 µM, first compound 0.316 µM) was 25.8%. The viability, T/C (second compound 1 µM, first compound 1 µM) was 46.1%, the viability, T/C (second compound 1 µM, first compound 3.16 µM) was 41% and the viability, T/C (second compound 1 µM, first compound 10 µM) was 34.8%.
